Test results as given in US20220277805A1, “GENETIC MUTATIONAL ANALYSIS” (BioSkryb Genomics, Inc., priority 2019, published 2022).
“Also recorded” adds a separate entry of the source.

Experiments:
mice = conditions: limited sequencing of target genes; cited from earlier work
cord blood CD34+ cells = assay: direct measurement of environmental mutagenicity (DMEM), single-cell PTA sequencing; format: cell-based, human; conditions: for enrichment of cytosine variants in DNase I hypersensitivity sites: compared to DH sites of CD34+ cells, Roadmap Epigenomics Project, FIG. 12D, 12E
Description: PTA was used to conduct a novel mutagenicity assay that provides a framework for performing high-resolution, genome wide human toxicogenomics studies. Previous studies such as the Ames test, relies on bacterial genetics to make measurements that are assumed to be representative of human cells while only providing limited information on the mutation number and patterns induced in each exposed cell. To overcome these limitations, a human mutagenesis system “direct measurement of environmental mutagenicity (DMEM)” was developed, wherein single human cells was exposed to an environmental compound, isolated as single cells, and subjected to single-cell sequencing to identify the new mutations induced in each cell.
Umbilical cord blood cells that express the stem/progenitor marker CD34 were exposed to increasing concentrations of the direct mutagen N-ethyl-N-nitrosourea (ENU).
ENU (CAS 759-73-9) and D-mannitol (CAS 69-65-8) were put into solution at their maximal solubility. Fresh anticoagulant-treated umbilical cord blood (CB) was obtained from St. Louis Cord Blood Bank. CB was diluted 1:2 with PBS and mononuclear cells (MNCs) were isolated by density gradient centrifugation on Ficoll-Paque Plus according to manufacturer's instructions. CB MNCs expressing CD34 were then immunomagnetically selected using the human CD34 microbead kit and magnetic cell sorting (MACS) system as per the manufacturer. Cell count and viability were assessed using the Luna FL cell counter. CB CD34+ cells were seeded at a density of 2.5×10^4 cells/mL in StemSpan SFEM supplemented with 1× CD34+ Expansion supplement, 100 units/mL of penicillin, and 100 ug/mL of streptomycin where they expanded for 96 hours before proceeding to mutagen exposure.
Expanded cord blood CD34+ cells were cultured in StemSpan SFEM supplemented with 1× CD34+ Expansion Supplement, 100 units/mL of penicillin, and 100 ug/mL of streptomycin. The cells were exposed to ENU at concentrations of 8.54, 85.4, and 854 uM, D-mannitol at 1152.8, and 11528 uM, or 0.9% sodium chloride (vehicle control) for 40 hours. Single-cell suspensions from drug-treated cells and vehicle control samples were harvested and stained for viability as described above. Single cell sorts were carried out as described above. PTA was performed and libraries were prepared using a simplified and improved protocol as per the general methods of the methods described herein, and Example 2.
Data acquired from cells in the DMEM experiments were trimmed using Trimmomatic, aligned to GRCh38 using BWA, and further processed using GATK 4.0.1 best practices without deviation from the recommended parameters. Genotyping was performed using HaplotypeCaller where joint genotypes were again filtered using standard parameters. […] The trinucleotide context of each SNV was determined by extracting the surrounding bases from the reference genome using bedtools. Mutation counts and context were visualized using ggplot2 and heatmap2 in R.
To determine whether mutations were enriched in DNase I hypersensitivity sites (DHS) in CD34+ cells, the proportion of SNVs in each sample that overlap with DHS sites from 10 CD34+ primary cell datasets produced by the Roadmap Epigenomics Project were calculated. DHS sites were extended by 2 nucleosomes, or 340 bases in either direction. Each DHS dataset was paired with a single cell sample where we determined the proportion of the human genome with at least 10× coverage in that cell which overlapped with a DHS, which was compared to the proportion of SNVs that were found within the covered DHS sites.

[1] = test system: clone harboring an activating KRAS mutation; assay: leukemia cells in culture exposed to standard ALL chemotherapy drugs, bulk sequencing of clones; format: cell-based; conditions: FIG. 7
Description: Given such a massive population genetic diversity, it has been hypothesized that there are clones that are more resistant to treatment within a given patient. To test that hypothesis, the sample is placed in culture and the leukemia cells are exposed to increasing concentrations of standard ALL chemotherapy drugs. […] This approach also employed bulk sequencing of the treated samples. The use of single-cell DNA sequencing in some instances allows a determination of the diversity and clonotypes of the expanding populations.

## CCN(N=O)C(N)=O [ENU, N-ethyl-N-nitrosourea]
mice
  preferred base changes: T to A (A to T), T to C (A to G), and C to T (G to A)
Cord blood CD34+ cells; FIG. 12B
  most common mutations (base changes): T to A (A to T), T to C (A to G), and C to T (G to A)
Cord blood CD34+ cells; all ENU induced mutations, FIG. 12E
  enrichment in variant locations at DH sites: No significant enrichment in variant locations at DH sites
Cord blood CD34+ cells
  enrichment of cytosine variants in DNase I hypersensitivity sites: no enrichment of cytosine variants in DNase I hypersensitivity sites was observed; also recorded: no enrichment of variants restricted to cytosines was observed in DH sites
Cord blood CD34+ cells; listed as N-ethyl-N-nitrosourea
  enrichment of cytosine variants in DNase I hypersensitivity sites: No significant enrichment of cytosine variants was observed
Cord blood CD34+ cells; increasing ENU concentrations 8.54, 85.4, 854 uM, 40 hours, FIG. 12A
  mutation number of each cell: dose-dependent increase in mutation number of each cell
Cord blood CD34+ cells; relative to proportion of the genome each annotation comprises, FIG. 12F
  enrichment of variants in genomic locations with specific annotations: No specific enrichment

## asparaginase
[1]; lowest dose
  response of the clone harboring an activating KRAS mutation: continued to expand

## C[C@]12C=CC(=O)C=C1CC[C@@H]1[C@@H]2[C@@H](O)C[C@@]2(C)[C@H]1CC[C@]2(O)C(=O)CO [prednisolone]
[1]; in culture with drug
  response of the clone harboring an activating KRAS mutation: more sensitive; also recorded: killed

## COc1cccc2c1C(=O)c1c(O)c3c(c(O)c1C2=O)C[C@@](O)(C(C)=O)C[C@@H]3O[C@H]1C[C@H](N)[C@H](O)[C@H](C)O1 [daunorubicin]
[1]; in culture with drug
  response of the clone harboring an activating KRAS mutation: more sensitive; also recorded: killed
